Data: patent US20240008524A1, “CONSUMABLE” (Nicoventures Trading Limited, priority 2020, published 2024)
In brackets after ≈: the same amount, converted by molar mass. Where two headings read alike, the source gives them in different places.

Experiment: Water solubility of flavoring agents and their flavor glucosides
Settings: for Glucoside water solubility: flavoring agent in the form of its flavor glucoside
[1] = free flavoring agent, not bound to sugar, water

Molecule	Glucoside water solubility (water) [mg/mL]	solubility (water) [mg/mL]	further results
Cc1occc(=O)c1O[C@@H]1O[C@H](CO)[C@@H](O)[C@H](O)[C@H]1O [Maltol glucoside, 2-methyl-4H-pyran-4-one-3-O-β-D-glucopyranoside]	535	–	–
COc1cc(CO)ccc1O [Vanillin-Alcohol]	–	–	Flavoring Agent water solubility [1]: 2 mg/mL; water solubility (free flavoring agent, at 25° C.): approximately 2 g/I
CC12CCC(C1)C(C)(C)C2O[C@@H]1O[C@H](CO)[C@@H](O)[C@H](O)[C@H]1O (stereo partly drawn) [Fenchol glucoside, 1,3,3-trimethyl-bicyclo[2.2.1]heptan-2-yl-O-β-D-glucopyranoside]	4	–	–
C=CC(C)(CCC=C(C)C)O[C@@H]1O[C@H](CO)[C@@H](O)[C@H](O)[C@H]1O (stereo partly drawn) [Linalool glucoside, 1-ethenyl-1,5-dimethyl-4-hexen-1-yl-O-β-D-glucopyranoside]	564	–	–
CC1CCC(C(C)C)C(O)C1 (centres unmarked) [Menthol]	–	0.49 (≈ 3.14 mM)	–
CC1=C(O[C@@H]2O[C@H](CO)[C@@H](O)[C@H](O)[C@H]2O)C(=O)C(C)O1 (stereo partly drawn) [Furaneol glucoside, 2,5-dimethyl-3(2H)-furanone-4-O-β-D-glucopyranoside]	731	–	–
CC(C)=CCCC(C)=CCCC(C)=CCO [Farnesol]	–	0.00129 (≈ 0.0058 mM)	–
Cc1ccc(C(C)C)cc1O [Carvacrol]	–	–	Flavoring Agent water solubility: 1.25 mg/mL
CC(C)=CCCC(C)CCO[C@@H]1O[C@H](CO)[C@@H](O)[C@H](O)[C@H]1O (stereo partly drawn) [Citronellol glucoside, 3,7-dimethyl-6-octen-1-yl-O-β-D-glucopyranoside]	519	–	–
CC12CCC(C1)C(C)(C)C2O (centres unmarked) [Fenchol]	–	0.461 (≈ 2.99 mM)	–
CC1(C)C2CC=C(CO[C@@H]3O[C@H](CO)[C@@H](O)[C@H](O)[C@H]3O)C1C2 (stereo partly drawn) [Myrtenol glucoside, 6,6-dimethylbicyclo(3.1.1)hept-2-ene-2-methyl-O-β-D-glucopyranoside]	525	–	–
CC/C=C\CCO [cis-3-Hexen-1-ol]	–	16 (≈ 160 mM)	–
CC1=C(O[C@@H]2O[C@H](CO)[C@@H](O)[C@H](O)[C@H]2O)C(=O)OC1C (stereo partly drawn) [Sotolon glucoside, 4,5-dimethylfuran-2(5H)-one-3-O-β-D-glucopyranoside]	502	–	–
CC(C)=CCCC(C)=CCCC(C)=CCO[C@@H]1O[C@H](CO)[C@@H](O)[C@H](O)[C@H]1O [Farnesol glucoside, 3,7,11-trimethyl-2,6,10-dodecatrien-1-yl-O-β-D-glucopyranoside]	1	–	–
CC1=C(O)C(=O)C(C)O1 (centres unmarked) [Furaneol]	–	18.5 (≈ 144 mM)	–
(2/5)-ethyl-5 (or 2)-methyl-3(2H)-furanone-4-O-β-D-glucopyranoside [Homofuraneol glucoside]	749	–	–
OCCc1ccccc1 [2-Phenylethanol]	–	–	Flavoring Agent water solubility [1]: 21.99 mg/mL
(S)-2-(4-methyl-3-cyclohexenyl)-2-propanyl-O-β-D-glucopyranoside [Alpha-Terpineol glucoside]	172	–	–
C=CCc1ccc(O)c(OC)c1 [Eugenol]	–	2.46 (≈ 15 mM)	–
CCC1OC(C)=C(O)C1=O (centres unmarked) [Homofuraneol]	–	–	Flavoring Agent water solubility [1]: 6.178 mg/mL
CCCCCCO[C@@H]1O[C@H](CO)[C@@H](O)[C@H](O)[C@H]1O [1-Hexanol glucoside, hex-1-yl-O-β-D-glucopyranoside]	676	–	–
COc1cc(CO)ccc1O[C@@H]1O[C@H](CO)[C@@H](O)[C@H](O)[C@H]1O [Vanillin-Alcohol glucoside, 3-methoxy-benzyl alcohol-4-O-β-D-glucopyranoside]	62	–	increase of water solubility (glucoside vs flavoring agent): 32 ×
CC1(C)C2CC=C(CO)C1C2 (centres unmarked) [Myrtenol]	–	–	Flavoring Agent water solubility [1]: 0.261 mg/mL

Molecule	Glucoside water solubility (water) [mg/mL]	solubility (water) [mg/mL]	further results
COC(=O)c1ccccc1N[C@@H]1O[C@H](CO)[C@@H](O)[C@H](O)[C@H]1O [Methylanthranilate glucoside, methyl-2-aminobenzoate-N-β-D-glucopyranoside]	35	–	–
CC/C=C\CCO[C@@H]1O[C@H](CO)[C@@H](O)[C@H](O)[C@H]1O [cis-3-Hexen-1-ol glucoside, (3Z)-3-hexen-1-yl-O-β-D-glucopyranoside]	598	–	–
CC(C)=CCC/C(C)=C/CO [Geraniol]	–	0.1 (≈ 0.648 mM)	–
CC(C)=CCCC(C)CCO (centres unmarked) [Citronellol]	–	0.106 (≈ 0.678 mM)	–
OC[C@H]1O[C@@H](OCCc2ccccc2)[C@H](O)[C@@H](O)[C@@H]1O [2-Phenylethanol glucoside, 2-phenyleth-1-yl-O-β-D-glucopyranoside]	833	–	–
C=CC(C)(O)CCC=C(C)C (centres unmarked) [Linalool]	–	0.68 (≈ 4.41 mM)	–
CC1=C(O)C(=O)OC1C (centres unmarked) [Sotolon]	–	–	Flavoring Agent water solubility [1]: 22.28 mg/mL
C=CC(O)CCCCC (centres unmarked) [1-Octen-3-ol]	–	1.84 (≈ 14.3 mM)	–
CC(C)=CCC/C(C)=C\CO[C@@H]1O[C@H](CO)[C@@H](O)[C@H](O)[C@H]1O [Nerol glucoside, (2Z)-3,7-dimethyl-2,6-octadien-1-yl-O-β-D-glucopyranoside]	16.6	–	–
C=CC(CCCCC)O[C@@H]1O[C@H](CO)[C@@H](O)[C@H](O)[C@H]1O (stereo partly drawn) [1-Octen-3-ol glucoside, 1-octen-3-yl-O-β-D-glucopyranoside]	200	–	–
CCC1OC(=O)C(O)=C1C (centres unmarked) [Maple furanone]	–	–	Flavoring Agent water solubility [1]: 74.39 mg/mL
CCC1OC(=O)C(O[C@@H]2O[C@H](CO)[C@@H](O)[C@H](O)[C@H]2O)=C1C (stereo partly drawn) [Maple furanone glucoside, 5-ethyl-3-hydroxy-4-methyl-2(5H)-furanone-3-O-β-D-glucopyranoside]	772	–	–
C=C(C)[C@@H]1CC=C(CO)CC1 [Perillyl alcohol]	–	0.471 (≈ 3.09 mM)	–
CC1=CCC(C(C)(C)O)CC1 (stereo not drawn) [Alpha-Terpineol]	–	0.71 (≈ 4.6 mM)	–
CCc1occc(=O)c1O[C@@H]1O[C@H](CO)[C@@H](O)[C@H](O)[C@H]1O [Ethylmaltol glucoside, 2-ethyl-4H-pyran-4-one-3-O-β-D-glucopyranoside]	662	–	–
C=C(C)C1CC=C(CO[C@@H]2O[C@H](CO)[C@@H](O)[C@H](O)[C@H]2O)CC1 (stereo partly drawn) [Perillyl alcohol glucoside, p-mentha-1,8-dien-7-yl-O-β-D-glucopyranoside]	485	–	–
C=CCc1ccc(O[C@@H]2O[C@H](CO)[C@@H](O)[C@H](O)[C@H]2O)c(OC)c1 [Eugenol glucoside, 2-methoxy-4-(2-propen-1-yl)phenyl-O-β-D-glucopyranoside]	15.1	–	–
CCc1occc(=O)c1O [Ethylmaltol]	–	–	Flavoring Agent water solubility [1]: 24.23 mg/mL
Cc1occc(=O)c1O [Maltol]	–	10.9 (≈ 86.4 mM)	–
CC(C)=CCC/C(C)=C/CO[C@@H]1O[C@H](CO)[C@@H](O)[C@H](O)[C@H]1O [Geraniol glucoside, (2E)-3,7-dimethyl-2,6-octadien-1-yl-O-β-D-glucopyranoside]	627	–	–
Oc1ccc2c(c1)OCO2 [Sesamol]	–	–	Flavoring Agent water solubility [1]: 14.65 mg/mL
CC(C)=CCC/C(C)=C\CO [Nerol]	–	0.256 (≈ 1.66 mM)	–
